Measurements from BindingDB's records for patent US20250136592 (Bridge Medicines, 2025).

Target: T1, Protein ENL (Homo sapiens, UniProt Q03111)
T1 sequence (Q03111 whole entry): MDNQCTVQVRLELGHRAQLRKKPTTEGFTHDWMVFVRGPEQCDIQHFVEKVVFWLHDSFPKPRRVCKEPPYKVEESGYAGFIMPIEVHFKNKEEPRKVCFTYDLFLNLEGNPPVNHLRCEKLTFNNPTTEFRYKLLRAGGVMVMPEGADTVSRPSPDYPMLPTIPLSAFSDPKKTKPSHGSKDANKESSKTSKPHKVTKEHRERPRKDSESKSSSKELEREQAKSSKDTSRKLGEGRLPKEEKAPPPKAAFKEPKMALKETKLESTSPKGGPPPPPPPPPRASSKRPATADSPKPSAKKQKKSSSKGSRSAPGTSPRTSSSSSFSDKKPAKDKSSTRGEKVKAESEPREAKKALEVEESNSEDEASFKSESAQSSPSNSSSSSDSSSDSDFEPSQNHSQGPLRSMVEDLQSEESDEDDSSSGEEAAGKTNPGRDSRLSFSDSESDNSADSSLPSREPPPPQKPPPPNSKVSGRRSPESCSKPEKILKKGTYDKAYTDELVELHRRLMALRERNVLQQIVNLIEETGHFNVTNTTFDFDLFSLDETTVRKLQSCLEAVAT
Experiment: FRET Assay
Method: Low control (LC) wells received 5 μL of assay buffer instead of ENL protein. […] The response at each compound concentration minus the LC value was converted to percent inhibition of the vehicle control group response (HC-LC).

IC50 [nM]	Compound
98	CN1CCC[C@@H]1c1nc2ccc(NC(=O)c3ccc4c(C5CC5)nn(C)c4c3)cc2[nH]1 [US20250136592, Example 10]
158	CN1CCC[C@@H]1c1nc2cc(NC(=O)c3ccc4c(-c5ccncc5)noc4c3)ccc2[nH]1 [US20250136592, Example 13]
18	Cc1nccc2cc(C(=O)Nc3cc4[nH]c([C@H]5CCCCN5C)cc4cn3)ccc12 [US20250136592, Example 80]
56	CN1CCC[C@@H]1c1cc2cnc(NC(=O)c3ccc4c(c3)nnn4-c3ccncc3)cc2[nH]1 [US20250136592, Example 85]
